From the supplement of paper PMC10307832

Legend:
Test in all cases: relative viability (nuclei count vs DMSO), 5 days (fraction); higher = more cells survive
Wnt-C59 = compound: CC1=NC=CC(=C1)C2=CC=C(C=C2)CC(=O)NC3=CC=C(C=C3)C4=CN=CC=C4 [Wnt-C59]
Procedure, shortened: (§1)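 Lung cancer cell lines in 1536-well plates were exposed by pinning to five library-drug doses (not always all listed) √10 apart, following an overnight hold at 37 °C. MetaXpress counted Hoechst-stained nuclei from 4× images taken after 5 days without medium change. Viability is the median ratio of treated-well to vehicle-well nuclei across plates. Plates required control CV below 25% and at least one doubling.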

Lapatinib = compound: CS(=O)(=O)CCNCc1ccc(-c2ccc3ncnc(Nc4ccc(OCc5cccc(F)c5)c(Cl)c4)c3c2)o1 [Lapatinib]
Procedure, shortened: as §1

Lapatinib + Vorinostat = compound: CS(=O)(=O)CCNCc1ccc(-c2ccc3ncnc(Nc4ccc(OCc5cccc(F)c5)c(Cl)c4)c3c2)o1 [Lapatinib] + O=C(CCCCCCC(=O)Nc1ccccc1)NO [Vorinostat] (partner 1 µM)
Procedure, shortened: (§2)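 Lung cancer cell lines in 1536-well plates were dosed by pin tool the day after seeding, either with one drug alone or with a fixed anchor-drug dose plus five library-drug doses (not always all listed) in √10 steps. After 5 days, cells were fixed and their nuclei stained in one step (final 0.05% Triton X-100, 1% formaldehyde, 1 ug/ml Hoechst), then counted on 4× images. Relative viability is the nuclei count in treated wells divided by that in vehicle wells. Values are medians of duplicate plates.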

Wnt-C59 + Dasatinib = compound: CC1=NC=CC(=C1)C2=CC=C(C=C2)CC(=O)NC3=CC=C(C=C3)C4=CN=CC=C4 [Wnt-C59] + Cc1nc(Nc2ncc(C(=O)Nc3c(C)cccc3Cl)s2)cc(N2CCN(CCO)CC2)n1 [Dasatinib] (partner 0.075 µM)
Procedure, shortened: as §2

Cell Line | relative viability (Wnt-C59; 0.001 µM) | relative viability (Wnt-C59; 0.01 µM) | relative viability (Wnt-C59; 0.03162 µM) | relative viability (Wnt-C59; 0.1 µM) | relative viability (Lapatinib; 0.06325 µM) | relative viability (Lapatinib; 0.2 µM) | relative viability (Lapatinib; 0.6325 µM) | relative viability (Lapatinib; 2 µM) | relative viability (Lapatinib; 2 µM, anchor plate) | relative viability (Lapatinib + Vorinostat; first compound 0.06325 µM) | relative viability (Lapatinib + Vorinostat; first compound 0.2 µM) | relative viability (Lapatinib + Vorinostat; first compound 0.6325 µM) | relative viability (Lapatinib + Vorinostat; first compound 2 µM) | relative viability (Wnt-C59 + Dasatinib; first compound 0.001 µM) | relative viability (Wnt-C59 + Dasatinib; first compound 0.01 µM) | relative viability (Wnt-C59 + Dasatinib; first compound 0.03162 µM) | relative viability (Wnt-C59 + Dasatinib; first compound 0.1 µM) | relative viability (Lapatinib; 0.02 µM) | relative viability (Lapatinib + Vorinostat; first compound 0.02 µM)
NCI-H1915 | 0.995 | 0.942 | 0.969 | 1 | 0.975 | 1 | 0.999 | 0.977 | 0.996 | 0.494 | 0.554 | 0.489 | 0.473 | 0.315 | 0.316 | 0.303 | 0.317 | – | –
Calu-6 | 1.02 | 1.01 | 1.05 | 0.987 | 0.971 | 1.02 | 1.03 | 0.926 | 1.04 | – | – | – | – | – | – | – | – | 0.972 | –
LU99A | 0.946 | 0.923 | 1.09 | 0.936 | 0.757 | 0.852 | 0.871 | 0.897 | 1.03 | 0.358 | 0.506 | 0.426 | 0.469 | 0.55 | 0.506 | 0.501 | 0.538 | 0.883 | 0.49
LOU-NH91 | 0.978 | 0.892 | 0.955 | 1.04 | 0.785 | 0.844 | 0.844 | 0.74 | 0.799 | 0.675 | 0.856 | 0.824 | 0.769 | 0.6 | 0.529 | 0.523 | 0.57 | 0.569 | 0.398
NCI-H1993 | 0.86 | 0.751 | 1.04 | 0.909 | – | 0.928 | 0.873 | 0.745 | 0.837 | – | 0.721 | 0.672 | 0.509 | 0.601 | – | 0.631 | 0.631 | 0.903 | 0.45
NCI-H1703 | 1.02 | 0.967 | 1.05 | 0.97 | 0.895 | 0.944 | 1.01 | 0.825 | 1.05 | – | – | – | – | – | – | – | – | 0.907 | –
NCI-H2405 | 1.01 | 0.932 | 0.945 | 0.977 | 0.83 | 0.971 | 1.01 | 0.905 | 1.04 | 0.833 | – | 0.997 | 0.91 | 0.207 | 0.232 | 0.221 | 0.233 | 0.674 | –
NCI-H661 | 0.961 | 1.01 | 1.08 | 0.99 | 0.919 | 0.957 | 0.822 | 0.705 | 0.52 | 0.783 | 0.79 | 0.736 | 0.605 | 0.914 | 0.736 | 0.907 | 0.872 | 0.987 | 0.758
COR-L 105 | 0.992 | 0.948 | 0.94 | 0.921 | 0.8 | 0.857 | 0.598 | 0.381 | 0.367 | 0.825 | 0.779 | 0.42 | 0.589 | 0.275 | 0.357 | 0.308 | 0.304 | 0.828 | 0.773
NCI-H1437 | 0.997 | 0.997 | 1 | 1.03 | 0.988 | 0.987 | 0.914 | 0.918 | 0.794 | 0.861 | 0.825 | 0.793 | 0.527 | 0.378 | 0.308 | 0.384 | 0.495 | 0.919 | 0.782
NCI-H1563 | 1.07 | 0.933 | 0.954 | 0.941 | 0.832 | 0.936 | 0.909 | 0.88 | 0.977 | – | – | – | – | 0.456 | 0.509 | 0.475 | 0.468 | 1.04 | –
NCI-H2009 | 0.997 | 0.999 | 1 | 0.992 | 0.978 | 1.02 | 1.01 | 1 | 0.84 | 0.74 | 0.894 | 0.693 | 0.679 | 0.31 | 0.331 | 0.311 | 0.311 | 1.01 | 0.733
NCI-H23 | 0.827 | 0.972 | 1.01 | 1 | – | 1.02 | 1.06 | 0.938 | 1.11 | – | 0.624 | 0.746 | 0.555 | 0.885 | 0.734 | 0.829 | 0.698 | – | –
201T | 0.972 | 0.958 | 0.982 | 0.976 | 0.802 | 0.963 | 0.979 | 0.887 | 1.04 | 0.78 | 0.89 | 0.938 | 0.854 | 0.615 | 0.578 | 0.505 | 0.558 | 0.713 | 0.48
NCI-H520 | 1.1 | 0.95 | 0.901 | 1.07 | 0.93 | 1.03 | 1.09 | 0.998 | 0.848 | 0.684 | 0.707 | 0.671 | 0.76 | 0.217 | 0.189 | 0.208 | 0.174 | 0.987 | 0.7
NCI-H1623 | 0.948 | 0.812 | 1.02 | 0.994 | 0.649 | 0.576 | 0.728 | 0.328 | – | – | – | – | – | 0.507 | 0.488 | 0.572 | 0.625 | 0.856 | –
A-427 | 0.965 | 0.817 | 1.05 | 1.04 | 0.978 | 1 | 0.954 | 0.963 | 1.05 | 0.841 | 0.862 | 0.833 | 0.845 | 0.71 | 0.682 | 0.768 | 0.798 | – | 0.839
NCI-H1975 | 0.901 | 0.896 | 0.968 | 0.988 | 0.8 | 0.904 | 0.936 | 0.77 | 0.946 | 0.676 | 0.732 | 0.716 | 0.662 | 0.412 | 0.31 | 0.349 | 0.447 | 0.968 | 0.71
